Consider ten molecules from PubChem BioAssay (NCI).

Test systems include LOX IMVI melanoma; A549 NSCLC; HL-60(TB) leukemia; NCI-H460 lung; SN12C renal; OVCAR-4 ovarian; SF-268 CNS; SK-OV-3 ovarian; ACHN renal; OVCAR-3 ovarian; NCI-H522 lung; HOP-92 NSCLC; HOP-62 NSCLC; MDA-MB-435; MCF7 breast; PC-3 prostate; DU-145 prostate.
Common to all, as to assay: growth of human tumour cells (NCI), 48 h

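Method: 48-hour compound exposure of cells in 96-well plates, five concentrations, linear interpolation of endpoints. TGI denotes the concentration required for complete inhibition of growth.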

On to `COc1ccc(NC(=O)C(C)Oc2ccc(OCC3CCCCC3)cc2)cc1` (stereo not drawn), for which the TGI in the experiment on LOX IMVI melanoma, with A549 NSCLC, in the experiment with HL-60(TB) leukemia, in the experiment with NCI-H460 lung, with SN12C renal and with OVCAR-4 ovarian was over 100 µM in each case. For the same molecule, the TGI in the experiment with SF-268 CNS, with SK-OV-3 ovarian, with ACHN renal, in the experiment with OVCAR-3 ovarian and in the experiment on NCI-H522 lung was over 100 µM throughout.

In the case of `O=C1c2ccccc2C(=O)C1C(c1ccc(F)cc1)C1C(=O)c2ccccc2C1=O`, the TGI in the experiment on HOP-92 NSCLC, with LOX IMVI melanoma, in the experiment on A549 NSCLC, with HL-60(TB) leukemia, in the experiment with HOP-62 NSCLC and with NCI-H460 lung was over 100 µM in each case. Moreover, the TGI in the experiment with SN12C renal, with OVCAR-4 ovarian, in the experiment on SF-268 CNS, in the experiment with SK-OV-3 ovarian, in the experiment on ACHN renal and in the experiment on OVCAR-3 ovarian was over 100 µM each time. This molecule also displayed a TGI in the experiment with NCI-H522 lung of over 100 µM.

With `C=C(C(=C)N1N=NC2C3CCC(C3)C21)N1N=NC2C3CCC(C3)C21` (stereo not drawn), the TGI was over 100 µM with HOP-92 NSCLC; over 100 µM in the experiment with LOX IMVI melanoma; over 100 µM in the experiment on A549 NSCLC; 54.6 µM with HL-60(TB) leukemia; over 100 µM in the experiment on HOP-62 NSCLC; over 100 µM with NCI-H460 lung. Also, the TGI with SN12C renal, in the experiment on OVCAR-4 ovarian, with SF-268 CNS, in the experiment with ACHN renal, in the experiment on OVCAR-3 ovarian and in the experiment with NCI-H522 lung was over 100 µM in each case.

For `N=CN=CC(=S)O[C@@H]1C(=O)N2CCC[C@@]23CCCC[C@@H]13`, the TGI with LOX IMVI melanoma, in the experiment with MDA-MB-435, in the experiment with A549 NSCLC, in the experiment on HL-60(TB) leukemia, with HOP-62 NSCLC and in the experiment on NCI-H460 lung was over 12.5 µM each time. Besides, the TGI in the experiment on SN12C renal, in the experiment with OVCAR-4 ovarian, in the experiment on SF-268 CNS, in the experiment with SK-OV-3 ovarian, in the experiment with ACHN renal and in the experiment with MCF7 breast was over 12.5 µM throughout. Also, the TGI in the experiment with PC-3 prostate, with NCI-H522 lung and in the experiment with DU-145 prostate was over 12.5 µM throughout.

As for `O=C(O)[C@H](Cc1ccccc1)NCCN1CCC[C@H]1C(=O)O`, the TGI with HOP-92 NSCLC was 72.3 µM; with MDA-MB-435, over 100 µM; in the experiment with A549 NSCLC, over 100 µM; with HOP-62 NSCLC it was over 100 µM; with NCI-H460 lung it was over 100 µM; with SN12C renal it was over 100 µM. For the same molecule, the TGI in the experiment with OVCAR-4 ovarian, in the experiment on SF-268 CNS, with SK-OV-3 ovarian, with MCF7 breast, with OVCAR-3 ovarian and in the experiment with PC-3 prostate was over 100 µM in each case. The TGI with NCI-H522 lung and with DU-145 prostate was over 100 µM throughout.

Take `CCN(CCCl)c1cc(CN(C)C)cc(NC(=O)C23CCC(C(=O)Nc4cc(CN(C)C)cc(N(CC)CCCl)c4)(CC2)CC3)c1`: the TGI was 5.06 µM with HOP-92 NSCLC; 1.57 µM in the experiment with LOX IMVI melanoma; 3.08 µM in the experiment with MDA-MB-435; 5.14 µM in the experiment on A549 NSCLC; over 100 µM in the experiment with HL-60(TB) leukemia; 2.76 µM in the experiment with HOP-62 NSCLC. Also, the TGI in the experiment with NCI-H460 lung amounted to 2.17 µM; with SN12C renal it was 2.39 µM; in the experiment with OVCAR-4 ovarian, 5.12 µM; with SF-268 CNS, 16 µM; with SK-OV-3 ovarian, 4.24 µM; in the experiment on ACHN renal, 9.22 µM. In addition, the TGI with MCF7 breast was determined as 2.01 µM; in the experiment with PC-3 prostate it was 1.95 µM; in the experiment on NCI-H522 lung, 1.47 µM; in the experiment on DU-145 prostate, 11.9 µM.

For the molecule `O=S1(=O)OCCOS(=O)(=O)C1Cc1cccc2ccccc12`, the TGI with HOP-92 NSCLC was 56.6 µM; in the experiment on LOX IMVI melanoma it was 55.4 µM; in the experiment on MDA-MB-435, 32 µM; with A549 NSCLC, over 100 µM; in the experiment on HL-60(TB) leukemia, 29.9 µM; in the experiment on HOP-62 NSCLC it was 49.1 µM. Also, the TGI in the experiment with NCI-H460 lung came to 35.4 µM; with SN12C renal, 62.2 µM; in the experiment on OVCAR-4 ovarian, 47 µM; in the experiment on SF-268 CNS, 57.8 µM; in the experiment on SK-OV-3 ovarian it was 70.7 µM; with ACHN renal, 99.6 µM. For the same molecule, the TGI in the experiment with MCF7 breast is 37.6 µM; in the experiment on PC-3 prostate it was over 100 µM; in the experiment with NCI-H522 lung it was 47.8 µM; in the experiment with DU-145 prostate it was 31.1 µM.

As to `C=CCN1/C(=C2\SC(=S)N(c3ccc(C)cc3)C2=O)Sc2c1nc[nH]c2=O`, the TGI in the experiment with HOP-92 NSCLC, in the experiment on LOX IMVI melanoma, in the experiment on A549 NSCLC, with HL-60(TB) leukemia, in the experiment with HOP-62 NSCLC and in the experiment on NCI-H460 lung was over 100 µM in each case. In addition, the TGI with SN12C renal, in the experiment on OVCAR-4 ovarian, in the experiment on SF-268 CNS, in the experiment on SK-OV-3 ovarian, in the experiment with ACHN renal and in the experiment on OVCAR-3 ovarian was over 100 µM in each case. The TGI with NCI-H522 lung is over 100 µM.

As for `COC(=O)C(Br)C1CCc2ccccc21` (stereo not drawn), the TGI with HOP-92 NSCLC, in the experiment with LOX IMVI melanoma, in the experiment with A549 NSCLC, in the experiment on HL-60(TB) leukemia, with HOP-62 NSCLC and in the experiment on NCI-H460 lung was over 100 µM in each case. The TGI in the experiment with SN12C renal, with OVCAR-4 ovarian, in the experiment with SF-268 CNS, with SK-OV-3 ovarian, in the experiment on ACHN renal and in the experiment on OVCAR-3 ovarian was over 100 µM each time.

As for `COC1(OC)C=CC2C1C1C=CC2C1(OC)OC` (stereo not drawn), the TGI with HOP-92 NSCLC, with LOX IMVI melanoma, with MDA-MB-435, in the experiment on A549 NSCLC, with HOP-62 NSCLC and in the experiment with NCI-H460 lung was over 100 µM each time. Also, the TGI with SN12C renal, with OVCAR-4 ovarian, with SF-268 CNS, with SK-OV-3 ovarian, with ACHN renal and in the experiment with MCF7 breast was over 100 µM each time. In addition, the TGI in the experiment with OVCAR-3 ovarian, in the experiment with PC-3 prostate, in the experiment on NCI-H522 lung and in the experiment with DU-145 prostate was over 100 µM each time.
